This note sets out measurements from ChEMBL document CHEMBL1201862, “PubChem BioAssay data set” (2004).

Test systems include M19-MEL; XF498; LXFL 529; SNB-78; DLD-1; MDA-N; Hs-578T; KM-20L2.
What all share (experiment): DTP human tumour cell line panel, 48 h

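These data come from cells grown in 96-well plates and exposed to compound for 48 hours at five concentrations. Abbreviation: GI50, concentration required for 50% inhibition of growth.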 The source made the active and inactive calls. Cut-off read from the data, not from the text of the source: active = GI50 up to about 1.1 µM and inactive = higher. Where a SMILES comes first, the peptide text is derived from it. Bridges are numbered along the chain shown (N, C = ends). The star is where a group is joined. Cbz = O=C(OCc1ccccc1)* A value given as a limit tells only on which side of the number the result lay.

On to `O=C(NN1C(=O)C(Cl)C1c1cccc(O)c1)c1ccccc1O` (stereo unspecified), for which the GI50 in the experiment on M19-MEL, with XF498, with LXFL 529, in the experiment on SNB-78 and with DLD-1 was > 100 µM (inactive) each time.

`CC12CC(=O)C3C(CCC4=CC(=O)CCC43C)C1CC=C2CC(=O)O` (stereo unspecified): the GI50 in the experiment on MDA-N and in the experiment on Hs-578T was > 100 µM (inactive) in each case.

As for `Cc1cc2c(SCc3ccccc3Cl)nc(N)nc2nc1C`, the GI50 was > 100 µM (inactive) in the experiment on MDA-N and 36.3 µM (inactive) in the experiment with Hs-578T.

Turning to `CCOC(=O)c1csc(NC(=O)CN2CCOCC2)n1`, the GI50 with MDA-N and with Hs-578T was > 100 µM (inactive) throughout.

Regarding `O=[N+]([O-])c1ccc(C2c3c(O)nc(S)nc3Oc3nc(S)nc(O)c32)cc1`, the GI50 with MDA-N and with Hs-578T was > 100 µM (inactive) throughout.

On to `N#Cc1c2c(c(Nc3ccc(F)cc3)n3c1nc1ccccc13)CCC2`, for which the GI50 in the experiment with MDA-N was 3.47 µM (inactive).

As to `COc1ccc(/C=C/C(=O)Oc2cc(O)cc(O)c2)cc1`, the GI50 in the experiment with MDA-N was 58.5 µM (inactive).

Regarding `Cc1c(OCc2cccc3ccccc23)ccc2c(=O)cc(SCCN3CCOCC3)oc12`, the GI50 in the experiment on Hs-578T is > 100 µM (inactive).

Take `Cc1cn2c(C)csc2c1P(=O)(OC(C)C)OC(C)C`: the GI50 in the experiment with MDA-N and in the experiment on Hs-578T was > 100 µM (inactive) each time.

For the compound `Cn1c(=O)c2c(nc(Nc3ccc(Cl)cc3)n3c(=O)n(-c4ccccc4)c(=O)n23)n(C)c1=O`, the GI50 with MDA-N and with Hs-578T was > 100 µM (inactive) each time.

Take `O=[N+]([O-])c1ccc2c(c1)C1=C(CO2)Cc2ccccc2O1`: the GI50 with MDA-N was 17.9 µM (inactive).

`O=C1NC(N2CCOCC2)=N/C1=C\c1ccc(O)cc1`: the GI50 was > 100 µM (inactive) in the experiment on MDA-N and 4.84 µM (inactive) in the experiment on Hs-578T.

As for `Cc1nc(-n2nc(-c3ccccc3)cc2-c2ccccc2)sc1C(/C=C/c1ccc([N+](=O)[O-])cc1)=N/NC(=O)c1ccncc1`, the GI50 was 25.4 µM (inactive) in the experiment with M19-MEL; 12.7 µM (inactive) with LXFL 529; 17.3 µM (inactive) with SNB-78; 19.4 µM (inactive) with KM-20L2; 11.6 µM (inactive) in the experiment with DLD-1.

On to `O=C1N/C(=N/N=C/c2ccccc2)N/C1=C\c1c[nH]c2ccccc12`, for which the GI50 in the experiment on MDA-N and in the experiment with Hs-578T was > 100 µM (inactive) in each case.

As for `COc1cc2c(cc1O)C(=O)O[C@@H]1CC=C3CCN(C)[C@H]3[C@H]21`, the GI50 with MDA-N and in the experiment with Hs-578T was > 25 µM (inactive) throughout.

For the compound `O=C1c2ccccc2S(=O)(=O)c2c1cccc2[N+](=O)[O-]`, the GI50 with Hs-578T was 4.25 µM (inactive).

As for `CCc1cccc(C(C)C)c1NC(=O)CC1Sc2ccccc2NC1=O` (stereo unspecified), the GI50 in the experiment on M19-MEL was 40.6 µM (inactive); in the experiment with XF498, 53.6 µM (inactive); in the experiment on LXFL 529 it was 43.5 µM (inactive); with SNB-78, > 100 µM (inactive); with DLD-1, 47.4 µM (inactive).

Regarding `CC(=O)NC1C(Sc2ncn(C3OC(CO)C(O)C(O)C3NC(C)=O)n2)OC(CO)C(O)C1O` (stereo unspecified), the GI50 in the experiment with MDA-N and in the experiment on Hs-578T was > 100 µM (inactive) in each case.

Take `[O-][S+](Nc1ccccc1)c1ccc(Cl)cc1` (stereo unspecified): the GI50 with MDA-N was > 100 µM (inactive); in the experiment with Hs-578T, 38.1 µM (inactive).

For `C=C=C(C(=O)OC)[S+]([O-])c1ccccc1[N+](=O)[O-]` (stereo unspecified), the GI50 with M19-MEL, in the experiment with XF498, with LXFL 529, in the experiment with SNB-78 and with KM-20L2 was > 100 µM (inactive) in each case.

Regarding `C=CCNC(=O)N(CCCC(NC(C)=O)C(=O)NCc1ccccc1)Cc1ccccc1` (stereo unspecified), the GI50 in the experiment with M19-MEL, in the experiment on XF498, in the experiment on LXFL 529 and in the experiment with KM-20L2 was > 100 µM (inactive) throughout.

For `CCOC(=O)/C(=C\c1cccc(C)c1)C(C)=O`, the GI50 in the experiment with MDA-N is 12.7 µM (inactive); in the experiment on Hs-578T it was 20.7 µM (inactive).

Regarding `CC(=O)CCCCO`, the GI50 in the experiment on M19-MEL, with XF498, with LXFL 529 and with SNB-78 was > 100 µM (inactive) each time.

On to `COC(=O)/C=C(C)/C=C\COC1CCCCO1` (stereo unspecified), for which the GI50 in the experiment with MDA-N and with Hs-578T was > 100 µM (inactive) in each case.

As to `CC(=O)OC1CC[C@@]2(C)C(=CC[C@@H]3[C@@H]2CC[C@]2(C)Nc4c(cnn4-c4ccc(F)cc4)C[C@@H]32)C1` (stereo partly specified), the values for the GI50 in the experiment on MDA-N and in the experiment with Hs-578T were 39.2 µM (inactive) and 14.1 µM (inactive), respectively.

In the case of `CNCCCNC(=S)Cn1cc(C)c(=O)[nH]c1=O`, the GI50 was > 100 µM (inactive) in the experiment with MDA-N and > 35.1 µM (inactive) with Hs-578T.

Regarding `COc1ccc(OC(C)=O)c2c1CCC=CC2=O`, the GI50 in the experiment with XF498 is 17.3 µM (inactive); in the experiment on LXFL 529, 9.57 µM (inactive); in the experiment on SNB-78 it was 38.5 µM (inactive); in the experiment with DLD-1, > 10 µM (inactive).

Turning to `NNC(=O)c1cc([N+](=O)[O-])ccc1NC(=O)C12CC3CC(CC(C3)C1)C2`, the GI50 in the experiment with MDA-N was 21 µM (inactive); in the experiment on Hs-578T, 5.66 µM (inactive).

For the compound `Cc1cc(C)c(C2CC(O)C(CO)O2)cc1C` (stereo unspecified), the GI50 with MDA-N and in the experiment with Hs-578T was > 100 µM (inactive) throughout.

For `COc1cc(/C=N\O)cc(/C=N/O)c1O`, the GI50 with MDA-N was 39.9 µM (inactive); in the experiment on Hs-578T, 17.6 µM (inactive).

Regarding `CO[C@@]12C[C@@H](CNC(=O)c3cc(Br)c[nH]3)O[C@@H]1NC(=O)N2`, the GI50 in the experiment with Hs-578T is > 100 µM (inactive).

As for `Nc1c(-c2ccccc2)c2ccc([N+](=O)[O-])cc2c(=O)n1-c1cccc(C(=O)O)c1`, the GI50 with MDA-N was > 100 µM (inactive); with Hs-578T, 61.2 µM (inactive).

Regarding `CC1(C)[C@@H]2CC[C@@]1(C)CN(CCC[N+](C)(C)C)C2`, the GI50 in the experiment with MDA-N and in the experiment with Hs-578T was > 100 µM (inactive) in each case.

As to `S=C(Nc1ccccc1)c1ccc(CN2CCCCC2)s1`, the GI50 in the experiment with MDA-N was 17.5 µM (inactive); in the experiment with Hs-578T, 25.3 µM (inactive).

For the compound `N#Cc1c(=O)c2cc([N+](=O)[O-])ccc2n2c1[nH]c1ccccc12`, the GI50 is 15 µM (inactive) in the experiment with MDA-N and 3.44 µM (inactive) with Hs-578T.

For the compound `CCCCCCCCC[C@@H]1C[C@@H]2CCC3C(C(=O)OC)=C(C)N=C(N1)N32` (stereo partly specified), the GI50 in the experiment with Hs-578T is 4.66 µM (inactive).

Consider `CC(C)=CC1C(COC(=O)c2cc3c(cc2Cl)OCO3)C1(C)C` (stereo unspecified), for which the GI50 in the experiment on MDA-N was 29.5 µM (inactive); in the experiment with Hs-578T, 13.1 µM (inactive).

For the compound `O=[N+]([O-])/C(C(Cl)=C(Cl)Cl)=C1\Nc2ccc([N+](=O)[O-])cc2N1`, the GI50 in the experiment on MDA-N is 75.3 µM (inactive).

Consider `CCNc1ncnc2nn[nH]c12`, for which the GI50 with MDA-N was > 100 µM (inactive).

With `O=C1C=CC2(C=C1)C[C@H](NC(=O)C(F)(F)F)C(=O)O2`, the GI50 in the experiment with M19-MEL is 23.6 µM (inactive); with LXFL 529 it was 23.7 µM (inactive); in the experiment with SNB-78, > 100 µM (inactive); in the experiment with KM-20L2, > 100 µM (inactive); in the experiment on DLD-1, 22.9 µM (inactive).

Consider `CCOP(=O)(O)C1C(CO)OC(n2ccc(=O)[nH]c2=O)C1O` (stereo unspecified), for which the GI50 in the experiment with MDA-N and in the experiment with Hs-578T was > 100 µM (inactive) each time.

In the case of `c1ccc(-c2nc3ccccc3n3c(CN4CCCCC4)nnc23)cc1`, the GI50 with MDA-N was > 100 µM (inactive); in the experiment with Hs-578T it was 69.2 µM (inactive).

Turning to `O=C(O)C1C(=O)Oc2c(cccc2[N+](=O)[O-])C1O` (stereo unspecified), the GI50 in the experiment on MDA-N and in the experiment on Hs-578T was > 100 µM (inactive) throughout.

Regarding `O=C(CSc1nc(=O)c(-c2ccccc2NC(=O)C(F)(F)F)n[nH]1)NC(=O)Nc1ccccc1`, the GI50 with M19-MEL was > 100 µM (inactive); in the experiment with XF498 it was > 100 µM (inactive); with LXFL 529, 79.6 µM (inactive); in the experiment on SNB-78, > 100 µM (inactive); in the experiment on DLD-1, 18.9 µM (inactive).

Turning to `N#Cc1c(-c2ccc([N+](=O)[O-])cc2)cc(-c2ccc(Nc3ccnc4cc(C(F)(F)F)ccc34)cc2)nc1N`, the figures for the GI50 with MDA-N and with Hs-578T were 9.77 µM (inactive) and 24.5 µM (inactive), respectively.

For `COC(=O)C12CCCN1CCC2`, in the experiment with MDA-N, the GI50 is > 100 µM (inactive).

Regarding `N#CC1CNC(N)NC1N` (stereo unspecified), the GI50 in the experiment with MDA-N and in the experiment with Hs-578T was > 100 µM (inactive) throughout.

On to `C[P+](c1ccccc1)(c1ccc(Cl)cc1)c1ccc(Cl)cc1`, for which, in the experiment with Hs-578T, the GI50 is 20.7 µM (inactive).

For `S=C(NN=C1NCCCCN1)Nc1ccc(Cl)cc1`, the GI50 was 11.4 µM (inactive) in the experiment on MDA-N and 60 µM (inactive) with Hs-578T.

For the compound `O=C(C/C(=N/O)C(F)(F)F)c1cccs1`, the GI50 in the experiment with MDA-N and with Hs-578T was > 100 µM (inactive) each time.

As for `CCc1nc(N)nc(N)c1-c1ccc([N+](=O)[O-])c(Cl)c1`, in the experiment with Hs-578T, the GI50 was 32.4 µM (inactive).

On to `COc1ccc(/N=C2/C(=N/c3ccc(OC)cc3)N(c3ccccc3)C(=S)N2N=C=C2Sc3ccccc3N2C)cc1`, for which the GI50 in the experiment on MDA-N and with Hs-578T was > 100 µM (inactive) in each case.

On to `O=C(OC1C=C=CS(=O)(=O)CC#C/C=C\1)c1cnc2ccccc2n1` (stereo unspecified), for which the GI50 is 52 µM (inactive) in the experiment with MDA-N and > 100 µM (inactive) in the experiment with Hs-578T.

`CC(=O)OC[C@H]1O[C@@H](O[C@H]2[C@H](OC(C)=O)C=CO[C@@H]2COC(C)=O)C(OC(C)=O)[C@H]2OC(C)(C)O[C@H]21` (stereo partly specified): in the experiment on Hs-578T, the GI50 was 32.1 µM (inactive).

In the case of `COc1ccc(-c2csc3c2-n2cccc2C3=O)cc1`, the GI50 with MDA-N was 0.0135 µM (active).

Take `Cc1ccccc1N(CC(=O)O)S(=O)(=O)c1ccccc1`: the GI50 in the experiment with M19-MEL, in the experiment on XF498, with LXFL 529, with KM-20L2 and in the experiment with DLD-1 was > 100 µM (inactive) each time.

Turning to `COc1cc(-c2cc(=O)c3c(O)c(OC)c(OC)c(OC)c3o2)ccc1O`, the GI50 in the experiment on M19-MEL was 22.8 µM (inactive); in the experiment with LXFL 529, 16.6 µM (inactive); with SNB-78, 27.7 µM (inactive); with KM-20L2, 40.2 µM (inactive); in the experiment with DLD-1, 23.9 µM (inactive).

For the compound `COC(=O)C1CCCCNC(=O)CCC(NC(=O)OCc2ccccc2)C(=O)N1` (stereo not drawn) (Cbz-Glu-Lys-OMe; lactam 1-2; configuration not given here), the GI50 in the experiment on MDA-N was > 100 µM (inactive); in the experiment with Hs-578T, 65.9 µM (inactive).

On to `c1ccc2c(Cc3c[nH]c4ccccc34)c[nH]c2c1` [ARUNDINE], for which the GI50 in the experiment on MDA-N is 19.2 µM (inactive); with Hs-578T, 41.3 µM (inactive).

As for `CCOS(C)(=O)=O` [METHANESULFONIC ACID ETHYL ESTER], the GI50 with MDA-N and in the experiment on Hs-578T was > 100 µM (inactive) in each case.
